Source: patent US11603524B2 (priority 2015, dated 2023)
Where two headings read alike, the source gives them in different places.

What was measured:
[1] = target: T1, Bce, oxalate decarboxylase from Bacillus cereus, SEQ ID NO: 1 (Bacillus cereus, UniProt Q81GZ6); details: 2 mM chemical, 6 days at 40° C., pH 9.5, tested at pH 3, against Bce 40° C. control
Description: (§5) For determining the pH activity profile of enzymes activity was determined from pH 1.5 to 8.0 using a combination of citrate and phosphate buffers (50 mM). Test sample is added to pre-heated reaction buffer and incubated at 37° C., shaking at 1100 rpm, for a range of set time points (t). The reaction is quenched at time t±5 seconds using 2.5 N H2SO4 at a 10% rate of acid to reaction mixture. The quenched reaction mixture is filtered and analyzed for formate concentration using an isocratic ion exclusion HPLC method.
Injection volume is 40 μl, and mobile phase is 5 mM H2SO4 (Isocratic) with flow rate at 0.6 mL/min and column temperature at 40° C. Standards of oxalic acid and formic acid are analyzed during every batch to prepare the standard curves. The running time between each injection is 20 min, and oxalic acid and formic acid are eluted at around 8 min and 16 min, respectively, detected at wavelength 210 nm.
Several different chemicals at final concentrations of 2 mM were added into the purified OxDC enzymes solution of Bce or Cb6301_D29, obtained as Example 3. After mixing well, these mixtures, in 50 mM Arginine at pH 9.5, were incubated at 40° C. without shaking (still) for 6 days. The enzymes themselves, without added chemicals, were incubated at 40° C. and 4° C. as controls. […]

[2] = target: T2, A8/A0, oxalate decarboxylase from Agrocybe aegerita, SEQ ID NO: 42 (Cyclocybe aegerita, UniProt A0A8S0X585); assay: Enzyme kinetics, oxalate degradation by A8/A0 OxDC; format: biochemical
T2 construct: A0 from fungal cells (homogenate), A8 from culture supernatant of A. aegerita; A8 also recombinant in E. coli (pColdIV, pOTIpr or pET)
T2 sequence (A0A8S0X585 with tags, fused parts or gaps): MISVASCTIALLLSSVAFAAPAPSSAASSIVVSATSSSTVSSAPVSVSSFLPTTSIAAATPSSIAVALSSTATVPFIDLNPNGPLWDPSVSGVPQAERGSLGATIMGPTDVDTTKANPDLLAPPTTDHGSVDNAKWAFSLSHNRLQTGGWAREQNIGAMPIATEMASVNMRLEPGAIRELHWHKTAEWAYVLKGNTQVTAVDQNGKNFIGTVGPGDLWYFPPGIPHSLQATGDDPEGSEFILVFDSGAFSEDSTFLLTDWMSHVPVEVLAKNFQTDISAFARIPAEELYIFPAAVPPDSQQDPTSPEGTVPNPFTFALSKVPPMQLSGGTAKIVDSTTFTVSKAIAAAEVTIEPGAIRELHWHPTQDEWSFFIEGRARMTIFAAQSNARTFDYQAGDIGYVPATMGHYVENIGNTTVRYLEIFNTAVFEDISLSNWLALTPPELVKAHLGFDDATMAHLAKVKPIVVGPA
Description: (§1) The enzyme kinetics of OxDC from four different species, Bce, Bcl, Cb6301_D29, and A8 were measured and compared to known kinetic data of YvrK. […] The A8 enzyme was measured at four independent pH's of: 5.0, 4.0, 3.5 and 3.0. […] The reaction was terminated by adding 2.5N H2SO4, and analyzed for formate content by HPLC, as described in Example 1. The reaction without oxalate was included as negative control. The initial reaction rates during the first 5 minutes were determined for substrate concentrations between 0.024-12.5 mM, using same procedure described in Example 1.
(§2) To determine the kinetic parameters, kcat and Km, the reaction rates v0 at different substrate concentration [S] were fit to Michaelis-Menten equation in KaleidaGraph software: v0=kcat*[E]t*[S]/(Km+[S])
(§3) Unprotonated glutamic acids in an undisrupted active site are more likely to be kept unprotonated than the equivalent residues in a disrupted active site (such as the active site of a disrupted hexamer).

[3] = tested on: oxalate decarboxylase (OxDC) enzymes of Table 5; assay: Catalytic efficiency of the OxDC enzymes (range); format: biochemical; details: see Table 5
Description: (§4) The enzyme kinetics of OxDC from four different species, Bce, Bcl, Cb6301_D29, and A8 were measured and compared to known kinetic data of YvrK. […] The reaction was terminated by adding 2.5N H2SO4, and analyzed for formate content by HPLC, as described in Example 1. The reaction without oxalate was included as negative control. The initial reaction rates during the first 5 minutes were determined for substrate concentrations between 0.024-12.5 mM, using same procedure described in Example 1.

[4] = tested on: YvrK, oxalate decarboxylase from Bacillus subtilis, SEQ ID NO: 47; details: cited from earlier work
[5] = target: T3, Cb6301, oxalate decarboxylase from Synechococcus elongates 6301, SEQ ID NO: 2 (Synechococcus elongatus, UniProt A0A0H3K3X3); assay: Enzyme kinetics, oxalate, Cb6301 OxDC; format: biochemical; details: Cb6301, pH 3.0 and below
T3 construct: native trimer; the kinetic measurement was probably on the D29 form
T3 sequence (A0A0H3K3X3 1-389): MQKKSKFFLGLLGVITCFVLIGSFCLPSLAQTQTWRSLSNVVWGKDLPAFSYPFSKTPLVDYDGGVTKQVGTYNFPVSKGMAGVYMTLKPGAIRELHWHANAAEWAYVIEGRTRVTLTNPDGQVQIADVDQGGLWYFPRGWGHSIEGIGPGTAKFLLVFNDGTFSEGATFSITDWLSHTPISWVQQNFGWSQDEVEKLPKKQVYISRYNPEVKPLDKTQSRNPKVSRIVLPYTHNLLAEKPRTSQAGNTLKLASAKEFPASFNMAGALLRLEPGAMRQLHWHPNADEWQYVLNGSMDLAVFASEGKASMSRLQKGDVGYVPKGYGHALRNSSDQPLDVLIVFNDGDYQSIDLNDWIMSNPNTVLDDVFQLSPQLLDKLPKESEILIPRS
Description: as §4

[6] = tested on: oxalate decarboxylases A8, Cb6301, Cb6312, Cb6803 and Bce; assay: Affinity for oxalate of A8, Cb6301, Cb6312, Cb6803 and Bce (range); format: biochemical
Description: as §4

[7] = target: T1, Bce, oxalate decarboxylase from Bacillus cereus, SEQ ID NO: 1; assay: Enzyme kinetics, oxalate degradation by Bce OxDC; details: pH 3.0 and below
Description: as §5
(§6) The quenched reaction mixture is filtered and analyzed on an Agilent 1100 series HPLC system equipped with Rezex™ ROA-Organic Acid H+ (8%), LC Column (300×7.8 mm) from Phenomenex. Injection volume is 40 μl, and mobile phase is 5 mM H2SO4 (Isocratic) with flow rate at 0.6 mL/min and column temperature at 40° C. Standards of oxalic acid and formic acid are analyzed during every batch to prepare the standard curves. The running time between each injection is 20 min, and oxalic acid and formic acid are eluted at around 8 min and 16 min, respectively, detected at wavelength 210 nm.
(§7) The A8 enzyme was measured at four independent pH's of: 5.0, 4.0, 3.5 and 3.0. […] The reaction was terminated by adding 2.5N H2SO4, and analyzed for formate content by HPLC, as described in Example 1. […] The initial reaction rates during the first 5 minutes were determined for substrate concentrations between 0.024-12.5 mM, using same procedure described in Example 1.

[8] = tested on: O=C(O)C(=O)O; assay: purified protein, by the assay type; details: other: Bce, pH 3.0, 37° C.
Description: as §5, §6, §7

[9] = substrate: O=C(O)C(=O)O; assay: purified protein, by the assay type; format: biochemical, Bacillus clausii; details: other: Bcl, oxalate, pH 3.0, 37° C.
Description: as §5, §6, §7

[10] = substrate: O=C(O)C(=O)O; assay: purified protein, by the assay type; format: biochemical, Synechococcus elongates 6301; details: other: Cb6301_D29, oxalate, pH 3.0, 37° C.
Description: as §1, §2

[11] = substrate: O=C(O)C(=O)O; assay: purified protein, by the assay type; format: biochemical, Agrocybe aegerita
Description: as §1, §2, §3

[12] = other: A8, pH 3.0, 37° C., pH 3.0, 37.0 °C

T1 sequence (Q81GZ6 entry or part of it): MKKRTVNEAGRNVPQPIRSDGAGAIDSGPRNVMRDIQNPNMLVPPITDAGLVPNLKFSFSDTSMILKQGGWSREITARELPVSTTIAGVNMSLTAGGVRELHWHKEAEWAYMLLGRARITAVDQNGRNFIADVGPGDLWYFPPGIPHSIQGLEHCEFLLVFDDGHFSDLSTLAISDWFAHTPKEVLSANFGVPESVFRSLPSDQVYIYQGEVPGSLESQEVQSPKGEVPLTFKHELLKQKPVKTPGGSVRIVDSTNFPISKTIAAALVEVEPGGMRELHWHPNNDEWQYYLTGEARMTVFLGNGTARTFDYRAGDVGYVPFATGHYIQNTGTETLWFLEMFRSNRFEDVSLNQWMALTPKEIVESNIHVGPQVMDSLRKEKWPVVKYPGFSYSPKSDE

## O=C(O)CN(CCN(CC(=O)O)CC(=O)O)CC(=O)O [EDTA]
[1]
  enzyme activity: decreases significantly

## O=C(O)C(=O)O [oxalate]
[2]; A8/A0, pH 3.0 and below
  Km: < 1000 µM
[2]; A8, pH 5.0, 4.0, 3.5 and 3.0
  Km as a function of pH: decreases as the pH becomes more acidic
[3]
  catalytic efficiency: 871-77000 conversions/M/s
[4]; YvrK, oxalate, pH 4.2, 22° C.
  Km: 8400 µM
[4]; YvrK, pH 4.0
  Km: 8400 µM
[4]; YvrK, pH 4.2, 22° C.
  kcat: 53 s⁻¹
  kcat/KM: 6310 M⁻¹ s⁻¹
[4]; Yvrk, pH not given
  Km: 8400 µM
[5]
  Km: < 1000 µM
[6]
  Km: 80 to 500 µM
[7]
  Km: < 1000 µM

## Bce, oxalate decarboxylase from Bacillus cereus, SEQ ID NO: 1 (Bacillus cereus ATCC 14579)
[8]
  kcat: 11.2 s⁻¹
  kcat/Km: 35000 M⁻¹ s⁻¹

B1: Bcl, oxalate decarboxylase from Bacillus clausii, SEQ ID NO: 41 (Shouchella clausii KSM-K16) (protein)
chain: MKRGDNVKPLKGNPNIPQPIRADGAGGVDRGPRNLMRDLQNPNILVPPETDRGLIPNLRFSFSDAHMQLNHGGWSREITQRDLPIATTLAGVNMSLTPGGVRELHWHKQAEWSYMLLGHARITAVDQNGRNFIADVGPGDLWYFPPGIPHSIQGLDDGCEFLLVFDDGMFSDLSTLSLSDWMAHTPKDVLSANFGVPESVFATIPTEQVYIYQDEVPGPLQSQQINSPYGAVPQTFKHELLKQPPLVTPGGSVRIVDSRNFPVSKTIAAALVEVEPGAMREMHWHPNNDEWQYYLTGQARMTVFTGNGVARTFDYRAGDVGYVPFATGHYIQNTGNESVWFLEMFKSDRFEDVSLNQWLALTPTELVQHNIHVDSKFTNKLRKEKWPVVKYPTI
[9]
  Km: 1200 µM
  kcat: 1.05 s⁻¹
  kcat/Km: 871 M⁻¹ s⁻¹

B2: Cb6301_D29, oxalate decarboxylase from Synechococcus elongates 6301 where the first 29 amino acids at the n-terminus has been removed, SEQ ID NO: 3 … (protein)
chain: MQTQTWRSLSNVVWGKDLPAFSYPFSKTPLVDYDGGVTKQVGTYNFPVSKGMAGVYMTLKPGAIRELHWHANAAEWAYVIEGRTRVTLTNPDGQVQIADVDQGGLWYFPRGWGHSIEGIGPGTAKFLLVFNDGTFSEGATFSITDWLSHTPISWVQQNFGWSQDEVEKLPKKQVYISRYNPEVKPLDKTQSRNPKVSRIVLPYTHNLLAEKPRTSQAGNTLKLASAKEFPASFNMAGALLRLEPGAMRQLHWHPNADEWQYVLNGSMDLAVFASEGKASMSRLQKGDVGYVPKGYGHALRNSSDQPLDVLIVFNDGDYQSIDLNDWIMSNPNTVLDDVFQLSPQLLDKLPKESEILIPRS
notes: start Met followed by residues 31-389), recombinant in E. coli
[10]
  Km: 200 µM
  kcat: 15.4 s⁻¹
  kcat/Km: 77000 M⁻¹ s⁻¹

B3: A8/A0, oxalate decarboxylase from Agrocybe aegerita, SEQ ID NO: 42 (Cyclocybe aegerita) (protein)
chain: MISVASCTIALLLSSVAFAAPAPSSAASSIVVSATSSSTVSSAPVSVSSFLPTTSIAAATPSSIAVALSSTATVPFIDLNPNGPLWDPSVSGVPQAERGSLGATIMGPTDVDTTKANPDLLAPPTTDHGSVDNAKWAFSLSHNRLQTGGWAREQNIGAMPIATEMASVNMRLEPGAIRELHWHKTAEWAYVLKGNTQVTAVDQNGKNFIGTVGPGDLWYFPPGIPHSLQATGDDPEGSEFILVFDSGAFSEDSTFLLTDWMSHVPVEVLAKNFQTDISAFARIPAEELYIFPAAVPPDSQQDPTSPEGTVPNPFTFALSKVPPMQLSGGTAKIVDSTTFTVSKAIAAAEVTIEPGAIRELHWHPTQDEWSFFIEGRARMTIFAAQSNARTFDYQAGDIGYVPATMGHYVENIGNTTVRYLEIFNTAVFEDISLSNWLALTPPELVKAHLGFDDATMAHLAKVKPIVVGPA
notes: A0 from fungal cells (homogenate), A8 from culture supernatant of A. aegerita; A8 also recombinant in E. coli (pColdIV, pOTIpr or pET)
[11]; other: A0, pH not given
  Km: 80 µM
[11]; [12]
  kcat: 42 s⁻¹
  kcat/Km: 525000 M⁻¹ s⁻¹
